Measurements as given in patent US7098217B2, “3,7-dihydro-purine-2,6-dione derivatives as CRF receptor ligands” (Bristol-Myers Squibb Company, priority 2001, dated 2006).

SMILES	melting point [°C]
CCCC(CCC)n1c(CC)nc2c1c(=O)n(C)c(=O)n2-c1c(OC)ccnc1C [Example 117, 8-ethyl-7-(4-heptyl)-3-(4-methoxy-2-methylpyrid-3-yl)-1-methyl-3,7-dihydro-1H-purine-2,6-dione]	124 to 126
CCCC(CCC)n1c(CC)nc2c1c(=O)n(C)c(=O)n2-c1c(C)cc(C)cc1C [Example 79, 8-ethyl-7-(4-heptyl)-1-methyl-3-(2,4,6-trimethylphenyl)-3,7-dihydro-1H-purine-2,6-dione]	195 to 195.5
CCC(CC)n1cnc2c1c(=O)n(C)c(=O)n2-c1ccc(Cl)cc1Cl [Example 5, 3-(2,4-dichlorophenyl)-1-methyl-7-(3-pentyl)-3,7-dihydro-1H-purine-2,6-dione]	158 to 159
C=CCC(CC=C)n1c(CC)nc2c1c(=O)n(C)c(=O)n2-c1ccc(Cl)cc1Cl [Example 4, 7-(1-allyl-3-butenyl)-3-(2,4-dichlorophenyl)-8-ethyl-1-methyl-3,7-dihydro-1H-purine-2,6-dione]	145 to 146
CCc1nc2c(c(=O)n(C)c(=O)n2-c2ccc(Cl)cc2Cl)n1Cc1ccc(OC)cc1 [Example 7, 3-(2,4-dichlorophenyl)-8-ethyl-7-(4-methoxybenzyl)-1-methyl-3,7-dihydro-1H-purine-2,6-dione]	209 to 210

Further lines, results first:

melting point [°C]	SMILES
185 to 186	CCCC(CCC)n1c(CC)nc2c1c(=O)n(C)c(=O)n2-c1ccc(Cl)cc1Cl [Example 2, 3-(2,4-dichlorophenyl)-8-ethyl-7-(4-heptyl)-1-methyl-3,7-dihydro-1H-purine-2,6-dione]
186 to 187	CCc1nc2c(c(=O)n(C)c(=O)n2-c2ccc(Cl)cc2Cl)n1C(CC)CC [Example 1, 3-(2,4-dichlorophenyl)-8-ethyl-1-methyl-7-(3-pentyl)-3,7-dihydro-1H-purine-2,6-dione]
